{"source": "patent US11173114B1", "about": "“Method and system for manufacturing and oral soluble films and oral soluble films made by thereby” (NOVA Thin Film Pharmaceuticals LLC, priority 2020, dated 2021)", "origin": "cited, not measured here", "note": "Like-named read-outs stand apart in the source and are kept apart here.", "data": [{"smiles": "O", "note": "[Water]", "values": [{"measurement": "Surface tension (head printed □)", "setting": "25 ° C.", "result": 71.97, "unit": "mN/m"}, {"measurement": "Surface tension (head printed □)", "setting": "40 ° C.", "result": 69.56, "unit": "mN/m"}, {"measurement": "Surface tension (head printed □)", "setting": "80 ° C.", "result": 62.6, "unit": "mN/m"}]}]}
